Consider 6 compounds from PubChem BioAssay AID2060326 (Molecular Pharmacology Branch, DTP, NCI, 2025).

The subject of the assay is MDA-MB-468 multi-cell spheroids, viability. The assay can be described thus: Anticancer human tumor MDA-MB-468 cell line growth inhibition [IpAb].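 On all read-outs here: spheroids exposed to agents for seven days.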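 On viability, T/C: 100% = DMSO vehicle control viability.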 The note with it: for viability, T/C: stronger effect = lower value. Summed up:
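Spheroids of 60% malignant cells, 25% HUVEC and 15% MSC were exposed to targeted agents combined with ipatasertib or abemaciclib. Doses started at or near clinical Cmax (10 microM when unknown) and fell in half-log steps.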

[1] abbreviates: curve of first compound, second compound 0.1 µM.
The mark [2] stands for this setting: curve of first compound, second compound 0.316 µM.
Where [3] appears, read: curve of first compound, second compound 1 µM.
Setting [4] is: second compound 0.1 µM, first compound 0.000316 µM.
The mark [5] stands for this setting: second compound 0.1 µM, first compound 0.001 µM.
[6] abbreviates: second compound 0.1 µM, first compound 0.00316 µM.
Setting [7] is: second compound 0.1 µM, first compound 0.01 µM.
Where [8] appears, read: second compound 0.1 µM, first compound 0.0316 µM.
Setting [9] is: second compound 0.1 µM, first compound 0.1 µM.
Setting [10] is: second compound 0.316 µM, first compound 0.000316 µM.
Where [11] appears, read: second compound 0.316 µM, first compound 0.001 µM.
Setting [12] is: second compound 0.316 µM, first compound 0.00316 µM.
The mark [13] stands for this setting: second compound 0.316 µM, first compound 0.01 µM.
[14] abbreviates: second compound 0.316 µM, first compound 0.0316 µM.
Where [15] appears, read: second compound 0.316 µM, first compound 0.1 µM.
The mark [16] stands for this setting: second compound 1 µM, first compound 0.000316 µM.
[17] abbreviates: second compound 1 µM, first compound 0.001 µM.
The mark [18] stands for this setting: second compound 1 µM, first compound 0.00316 µM.
[19] abbreviates: second compound 1 µM, first compound 0.01 µM.
Setting [20] is: second compound 1 µM, first compound 0.0316 µM.
Setting [21] is: second compound 1 µM, first compound 0.1 µM.

As a reminder, the IC50 is the concentration needed to halve the response being measured. Usually viability, T/C stands for the result in the treated group divided by that in the control group, in per cent.

Several values for one entry are separate records, joined by “and”; a condition that tells them apart may be missing. Equal values may be shown once. Where only a bound is given, the exact number is not on record here.

`CC(C)n1nc(-c2ccc3oc(N)nc3c2)c2c(N)ncnc21` + CC(C)NCC(C(=O)N1CCN(c2ncnc3c2C(C)CC3O)CC1)c1ccc(Cl)cc1: the IC50 is, setting by setting: under setting [1], 5.15 nM; under setting [2], 2.36 nM; under setting [3], less than 0.316 nM; (curve of first compound, second compound 3.16 µM) less than 0.316 nM; (curve of first compound, second compound 10 µM) less than 0.316 nM. The viability, T/C under setting [4] was 76.6%; the viability, T/C under setting [5] is 72.1%; the viability, T/C under setting [6] was 58.3%; the viability, T/C under setting [7] was 38.7%; the viability, T/C under setting [8] was 15.8%; the viability, T/C under setting [9] was 7.82%. Besides, the viability, T/C is, setting by setting: under setting [10], 59%; under setting [11], 54.5%; under setting [12], 48.6%; under setting [13], 23.4%; under setting [14], 9.26%; under setting [15], 5.3%. Besides, the viability, T/C runs as follows: under setting [16], 47.6%; under setting [17], 41%; under setting [18], 31.1%; under setting [19], 11.3%; under setting [20], 5.17%; under setting [21], 3.13%. Further, the viability, T/C is, setting by setting: (second compound 3.16 µM, first compound 0.000316 µM) 31.4%; (second compound 3.16 µM, first compound 0.001 µM) 25.4%; (second compound 3.16 µM, first compound 0.00316 µM) 16.8%; (second compound 3.16 µM, first compound 0.01 µM) 5.94%; (second compound 3.16 µM, first compound 0.0316 µM) 2.41%; (second compound 3.16 µM, first compound 0.1 µM) 1.21%. The viability, T/C is 15.7% (second compound 10 µM, first compound 0.000316 µM); 14.3% (second compound 10 µM, first compound 0.001 µM); 7.69% (second compound 10 µM, first compound 0.00316 µM); 3.03% (second compound 10 µM, first compound 0.01 µM); 0.6% (second compound 10 µM, first compound 0.0316 µM); 0.38% (second compound 10 µM, first compound 0.1 µM).

Consider `CCN1CCN(Cc2ccc(Nc3ncc(F)c(-c4cc(F)c5nc(C)n(C(C)C)c5c4)n3)nc2)CC1`, for which the viability, T/C (compound 0.1 µM) was 102% [middle of 13 runs]. Also, the IC50 (compound alone, run of 05/18/2021) was greater than 1000 nM.

Regarding `CC(=O)c1c(C)c2cnc(Nc3ccc(N4CCNCC4)cn3)nc2n(C2CCCC2)c1=O`, the viability, T/C by setting is: (compound 0.000949 µM) 93.7% and 99%; (compound 0.003 µM) 91.4% and 97.5%; (compound 0.00949 µM) 92% and 93.8%; (compound 0.03 µM) 88.1% and 91.8%; (compound 0.0949 µM) 92.4% and 81.4%; (compound 0.3 µM) 90.2% and 73.4%. Besides, under “curve of compound”, the IC50 was greater than 300 nM.

Regarding `Cn1ncnc1[C@H]1c2n[nH]c(=O)c3cc(F)cc(c23)N[C@@H]1c1ccc(F)cc1`, the viability, T/C by setting is: (compound 0.000316 µM) 121% and 90.6%; (compound 0.001 µM) 105% and 98.7%; (compound 0.00316 µM) 113% and 81%; (compound 0.01 µM) 103% and 93.2%; (compound 0.0316 µM) 84.2% and 83.9%; (compound 0.1 µM) 68.8% and 65.7%. Besides, the IC50 (curve of compound) is greater than 100 nM.

With `CC(C)n1nc(-c2ccc3oc(N)nc3c2)c2c(N)ncnc21` + CCN1CCN(Cc2ccc(Nc3ncc(F)c(-c4cc(F)c5nc(C)n(C(C)C)c5c4)n3)nc2)CC1, the IC50 (curve of first compound, second compound 0.01 µM) was 11.5 nM; the IC50 (curve of first compound, second compound 0.0316 µM) turned out to be 10.4 nM; the IC50 under setting [1] was 11.2 nM; the IC50 under setting [2] was 14.7 nM; the IC50 under setting [3] came out at 11.6 nM. Besides, the viability, T/C was 90.8% (second compound 0.01 µM, first compound 0.000316 µM); 90% (second compound 0.01 µM, first compound 0.001 µM); 69.7% (second compound 0.01 µM, first compound 0.00316 µM); 57.6% (second compound 0.01 µM, first compound 0.01 µM); 24.9% (second compound 0.01 µM, first compound 0.0316 µM); 10.6% (second compound 0.01 µM, first compound 0.1 µM). Besides, the viability, T/C runs as follows: (second compound 0.0316 µM, first compound 0.000316 µM) 95.6%; (second compound 0.0316 µM, first compound 0.001 µM) 81.4%; (second compound 0.0316 µM, first compound 0.00316 µM) 67%; (second compound 0.0316 µM, first compound 0.01 µM) 56%; (second compound 0.0316 µM, first compound 0.0316 µM) 26.4%; (second compound 0.0316 µM, first compound 0.1 µM) 11.6%. Besides, the viability, T/C is 99% under setting [4]; 78.3% under setting [5]; 75.8% under setting [6]; 54% under setting [7]; 26.9% under setting [8]; 10.2% under setting [9]. Also, the viability, T/C is 91.4% under setting [10]; 88.3% under setting [11]; 86% under setting [12]; 54.7% under setting [13]; 35% under setting [14]; 14.5% under setting [15]. Further, the viability, T/C is 75.2% under setting [16]; 81.3% under setting [17]; 64.2% under setting [18]; 53.2% under setting [19]; 34% under setting [20]; 20% under setting [21].

Consider `CC(C)n1nc(-c2ccc3oc(N)nc3c2)c2c(N)ncnc21`, for which the viability, T/C is 99% and 104% (compound 0.000316 µM); 84.2% and 89.2% (compound 0.001 µM); 74% and 80.1% (compound 0.00316 µM); 53.6% and 57.9% (compound 0.01 µM); 23.8% and 23.2% (compound 0.0316 µM); 9.32% and 10.4% (compound 0.1 µM). For the setting “curve of compound”, the IC50 was 10.4 nM and 12 nM.
